Data reported in ChEMBL document CHEMBL5537154, “Smart glypican-3-targeting peptide-chlorin e6 conjugates for targeted photodynamic therapy of hepatocellular carcinoma” (Eur J Med Chem, 2024).
Peptide text beside a SMILES is read from it.

Assays:
HepG2 [1] = assay: Antiproliferative activity against human HepG2 cells under dark condition by CCK8 assay; format: functional, cell-based
HepG2 [2] = assay: Antiproliferative activity against human HepG2 cells under 10 J/cm2 light irradiation at 660 nm by CCK8 assay; format: functional, cell-based; details: HepG2, light or radiation study
Huh-7 [3] = assay: Antiproliferative activity against human Huh-7 cells under dark condition by CCK8 assay; format: functional, cell-based
Huh-7 [4] = assay: Antiproliferative activity against human Huh-7 cells under 10 J/cm2 light irradiation at 660 nm by CCK8 assay; format: functional, cell-based; details: Huh-7, light or radiation study
MCF7 [5] = assay: Antiproliferative activity against human MCF7 cells under dark condition by CCK8 assay; format: functional, cell-based
MCF7 [6] = assay: Antiproliferative activity against human MCF7 cells under 10 J/cm2 light irradiation at 660 nm by CCK8 assay; format: functional, cell-based; details: MCF7, light or radiation study
HeLa [7] = assay: Antiproliferative activity against human HeLa cells under dark condition by CCK8 assay; format: functional, cell-based
HeLa [8] = assay: Antiproliferative activity against human HeLa cells under 10 J/cm2 light irradiation at 660 nm by CCK8 assay; format: functional, cell-based; details: light or radiation study
[9] = Antiproliferative activity against human HUVEC cells under dark condition by CCK8 assay; format: toxicity, cell-based
[10] = Antiproliferative activity against human HUVEC cells under 10 J/cm2 light irradiation at 660 nm by CCK8 assay; format: toxicity, cell-based
[11] = Partition coefficient, logP of compound; format: physicochemical; details: octanol/water
[12] = Photostability of compound under 250 mW/cm2 light irradiation at 660 nm incubated for 10 mins by UV spectrophotometry; format: physicochemical; details: 0.66 µM
[13] = Aggregation property of compound in PBS; format: physicochemical; details: buffer
chymotrypsin = chymotrypsin (Homo sapiens, UniProt P17538+P40313+Q6GPI1+Q99895); assay: Stability of compound assessed as chymotrypsin (unknown origin)-mediated compound degradation in PBS at pH 7.4 by measuring half life; format: ADME, protein assay

Row | Compound | IC50 (HepG2 [1]) [µM] | IC50 (HepG2 [2]) [µM] | IC50 (Huh-7 [3]) [µM] | IC50 (Huh-7 [4]) [µM] | IC50 (MCF7 [5]) [µM] | IC50 (MCF7 [6]) [µM] | IC50 (HeLa [7]) [µM] | IC50 (HeLa [8]) [µM] | IC50 [9] [µM] | IC50 [10] [µM] | logP [11] | Stability [12] | Activity [13] | half-life (chymotrypsin) [h]
1 | C=Cc1c(C)c2cc3nc(c(CC(=O)O)c4[nH]c(cc5nc(cc1[nH]2)C(C)=C5CC)c(C)c4C(=O)NCCCC(=O)N[C@@H](CC(=O)O)C(=O)N[C@@H](Cc1ccc(O)cc1)C(=O)N[C@@H](CCC(=O)O)C(=O)N[C@@H](CCSC)C(=O)N[C@@H](Cc1cnc[nH]1)C(=O)N[C@@H](CC(C)C)C(=O)N[C@@H](Cc1c[nH]c2ccccc12)C(=O)N[C@@H](Cc1c[nH]c2ccccc12)C(=O)NCC(=O)N[C@H](C(=O)N[C@@H](CCC(=O)O)C(=O)N[C@@H](CC(C)C)C(=O)O)[C@@H](C)O)[C@@H](CCC(=O)O)[C@@H]3C (HELM PEPTIDE1{[C=Cc1c(C)c2cc3nc(c(CC(=O)O)c4[nH]c(cc5nc(cc1[nH]2)C(C)=C5CC)c(C)c4C(=O)[*:2])[C@@H](CCC(=O)O)[C@@H]3C].[O=C(CCCN[*:1])[*:2]].D.Y.E.M.H.L.W.W.G.T.E.L}$$$$V2.0) | > 200 | 1.7 | > 200 | 1.9 | > 200 | 5.3 | > 200 | 4.7 | > 200 | 9.8 | 1.5 | Stable | Active | 1.3
2 | C=Cc1c(C)c2cc3nc(c(CC(=O)O)c4[nH]c(cc5nc(cc1[nH]2)C(C)=C5CC)c(C)c4C(=O)NCCCC(=O)N[C@@H](CCCCN)C(=O)N[C@@H](CCCCN)C(=O)N[C@@H](CCCCN)C(=O)N[C@@H](CCCNC(=N)N)C(=O)N[C@@H](CC(C)C)C(=O)N[C@@H](CC(N)=O)C(=O)N[C@H](C(=O)NCC(=O)NCC(=O)N[C@H](C(=O)N[C@@H](Cc1ccc(O)cc1)C(=O)N[C@@H](Cc1ccccc1)C(=O)N[C@@H](CC(C)C)C(=O)N[C@H](C(=O)N[C@H](C(=O)N[C@@H](CCCNC(=N)N)C(=O)N[C@@H](CCC(N)=O)C(=O)O)[C@@H](C)O)[C@@H](C)O)[C@@H](C)O)C(C)C)[C@@H](CCC(=O)O)[C@@H]3C (HELM PEPTIDE1{[C=Cc1c(C)c2cc3nc(c(CC(=O)O)c4[nH]c(cc5nc(cc1[nH]2)C(C)=C5CC)c(C)c4C(=O)[*:2])[C@@H](CCC(=O)O)[C@@H]3C].[O=C(CCCN[*:1])[*:2]].K.K.K.R.L.N.V.G.G.T.Y.F.L.T.T.R.Q}$$$$V2.0) | > 200 | 0.33 | > 200 | 0.34 | > 200 | 0.79 | > 200 | 0.57 | > 200 | 0.38 | -0.5 | Stable | Not Active | 1.3
